This passage reports IC50 results from ChEMBL document CHEMBL1152780, “Kinase domain mutations in cancer: implications for small molecule drug design strategies” (J Med Chem, 2009).

Test [1] in a line: Cytotoxicity against mouse BA/F3 cells expressing EGFR L858R mutant. Type of test: functional, cell-based. The following applies: BaF3.
Test [2] is described as follows: Cytotoxicity against mouse BA/F3 cells expressing EGFR L858R/T790M mutant. Format: functional, cell-based. The following applies: BaF3.

pIC50: −log10 of the molar value.

Broadly, the pIC50 is −log10 of the IC50, conventionally taken in molar units. A lower pIC50 goes with a large IC50. Compound `C#Cc1cccc(Nc2ncnc3cc(OCCOC)c(OCCOC)cc23)c1` [ERLOTINIB] showed a pIC50 in test [1] of 7.90.

Turning to `CCOc1cc2ncc(C#N)c(Nc3ccc(OCc4ccccn4)c(Cl)c3)c2cc1NC(=O)/C=C/CN(C)C` [NERATINIB], the pIC50 was 8.46 in test [1] and 6.74 in test [2].
